Reference: patent US7875647B2, “Heteroaryl-pyrazole derivatives as cannabinoid CB1 receptor antagonists” (Green Cross Corporation, priority 2006, dated 2011)
Like-named read-outs stand apart in the source and are kept apart here.

Molecular target: T1, Cannabinoid-1 receptor (CB1R) (Rattus norvegicus, UniProt P20272)
T1 construct: The tissue obtained from the brain of SD rats was homogenized; from tissue; host or cells: brain of SD rats (membrane pellet of the homogenate)
Assay: Cannabinoid-1 receptor (CB1R) binding affinity assay ([3H]CP-55940, rat CB-1 receptor binding protocol)
Conditions: brain tissue of SD rats, [3H]CP-55940, 30° C. 60 min

T1 sequence (P20272 whole entry): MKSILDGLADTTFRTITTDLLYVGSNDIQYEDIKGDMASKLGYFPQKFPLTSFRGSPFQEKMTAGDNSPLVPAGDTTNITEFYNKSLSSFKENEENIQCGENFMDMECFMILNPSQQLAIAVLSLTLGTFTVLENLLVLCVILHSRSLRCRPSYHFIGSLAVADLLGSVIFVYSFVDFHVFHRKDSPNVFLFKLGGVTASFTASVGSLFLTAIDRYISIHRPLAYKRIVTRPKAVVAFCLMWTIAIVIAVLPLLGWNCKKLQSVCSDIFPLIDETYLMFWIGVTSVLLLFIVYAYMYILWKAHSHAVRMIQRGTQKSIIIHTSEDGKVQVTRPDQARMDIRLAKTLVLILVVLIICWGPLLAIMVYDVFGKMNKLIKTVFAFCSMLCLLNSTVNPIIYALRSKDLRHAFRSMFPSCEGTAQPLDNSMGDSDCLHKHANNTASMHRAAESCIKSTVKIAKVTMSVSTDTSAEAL

IC50 (read-out: IC50) | Structure (SMILES) | IC50 (IC50(nM))
2.18 nM | Clc1ccc(-c2c(Cn3cncn3)c(-c3nnc(C4CCC4)s3)nn2-c2ccc(Cl)cc2Cl)cc1 [Example 504, 2-(4-((1H-1,2,4-triazol-1-yl)methyl)-5-(4-chlorophenyl)-1-(2,4-dichlorophenyl)-1H-pyrazol-3-yl)-5-cyclobutyl-1,3,4-thiadiazole] | –
2.49 nM | Clc1ccc(-c2c(Cn3cncn3)c(-c3nnc(C4(c5ccc(Cl)cc5)CC4)s3)nn2-c2ccc(Cl)cc2Cl)cc1 [Example 506, 2-(4-((1H-1,2,4-triazol-1-yl)methyl)-5-(4-chlorophenyl)-1-(2,4-dichlorophenyl)-1H-pyrazol-3-yl)-5-(1-(4-chlorophenyl)cyclopropyl)-1,3,4-thiadiazole] | –
5.74 nM | Cc1ccc(C2(c3nnc(-c4nn(-c5ccc(Cl)cc5Cl)c(-c5ccc(Cl)cc5)c4Cn4cncn4)s3)CC2)cc1 [Example 508, 2-(4-((1H-1,2,4-triazol-1-yl)methyl)-5-(4-chlorophenyl)-1-(2,4-dichlorophenyl)-1H-pyrazol-3-yl)-5-(1-p-tolylcyclopropyl)-1,3,4-thiadiazole] | –
2.07 nM | COc1ccc(C2(c3nnc(-c4nn(-c5ccc(Cl)cc5Cl)c(-c5ccc(Cl)cc5)c4Cn4cncn4)s3)CC2)cc1 [Example 509, 2-(4-((1H-1,2,4-triazol-1-yl)methyl)-5-(4-chlorophenyl)-1-(2,4-dichlorophenyl)-1H-pyrazol-3-yl)-5-(1-(4-methoxyphenyl)cyclopropyl)-1,3,4-thiadiazole] | –
11.3 nM | Clc1ccc(-c2c(Cn3cncn3)c(-c3nnc(C4(c5ccc(Cl)cc5Cl)CC4)s3)nn2-c2ccc(Cl)cc2Cl)cc1 [Example 510, 2-(4-((1H-1,2,4-triazol-1-yl)methyl)-5-(4-chlorophenyl)-1-(2,4-dichlorophenyl)-1H-pyrazol-3-yl)-5-(1-(2,4-dichlorophenyl)cyclopropyl)-1,3,4-thiadiazole] | –
2.29 nM | FC(F)(F)C1(c2nnc(-c3nn(-c4ccc(Cl)cc4Cl)c(-c4ccc(Cl)cc4)c3Cn3cncn3)s2)CC1 [Example 511, 2-(4-((1H-1,2,4-triazol-1-yl)methyl)-5-(4-chlorophenyl)-1-(2,4-dichlorophenyl)-1H-pyrazol-3-yl)-5-(1-(trifluoromethyl)cyclopropyl)-1,3,4-thiadiazole] | –
2.89 nM | FC(F)(F)C1(c2nnc(-c3nn(-c4ccc(Cl)cc4Cl)c(-c4ccc(Cl)cc4)c3Cn3cncn3)s2)CCC1 [Example 512, 2-(4-((1H-1,2,4-triazol-1-yl)methyl)-5-(4-chlorophenyl)-1-(2,4-dichlorophenyl)-1H-pyrazol-3-yl)-5-(1-(trifluoromethyl)cyclobutyl)-1,3,4-thiadiazole] | –
2.34 nM | Clc1ccc(-c2c(Cn3cncn3)c(-c3nnc(C4(c5ccc(Cl)cc5)CCC4)s3)nn2-c2ccc(Cl)cc2Cl)cc1 [Example 513, 2-(4-((1H-1,2,4-triazol-1-yl)methyl)-5-(4-chlorophenyl)-1-(2,4-dichlorophenyl)-1H-pyrazol-3-yl)-5-(1-(4-chlorophenyl)cyclobutyl)-1,3,4-thiadiazole] | –
2.88 nM | Clc1ccc(-c2c(Cn3cncn3)c(-c3nnc(C4(c5ccccc5)CCCC4)s3)nn2-c2ccc(Cl)cc2Cl)cc1 [Example 514, 2-(4-((1H-1,2,4-triazol-1-yl)methyl)-5-(4-chlorophenyl)-1-(2,4-dichlorophenyl)-1H-pyrazol-3-yl)-5-(1-phenylcyclopentyl)-1,3,4-thiadiazole] | –
1.91 nM | Clc1ccc(-c2c(Cn3cncn3)c(-c3nnc(C4(c5ccc(Cl)cc5)CCCC4)s3)nn2-c2ccc(Cl)cc2Cl)cc1 [Example 515, 2-(4-((1H-1,2,4-triazol-1-yl)methyl)-5-(4-chlorophenyl)-1-(2,4-dichlorophenyl)-1H-pyrazol-3-yl)-5-(1-(4-chlorophenyl)cyclopentyl)-1,3,4-thiadiazole] | –
9.01 nM | CC(=O)OCc1c(-c2nnc(C(C)(C)C)s2)nn(-c2ccc(Cl)cc2Cl)c1-c1ccc(Br)cc1 [Example 520, (5-(4-bromophenyl)-3-(5-tert-butyl-1,3,4-thiadiazol-2-yl)-1-(2,4-dichlorophenyl)-1H-pyrazol-4-yl)methyl acetate] | –
16.7 nM | CC(=O)OCc1c(-c2nnc(C(C)(C)C)s2)nn(-c2ccc(Cl)cc2Cl)c1-c1ccc(Cl)cc1 [Example 521, (3-(5-tert-butyl-1,3,4-thiadiazol-2-yl)-5-(4-chlorophenyl)-1-(2,4-dichlorophenyl)-1H-pyrazol-4-yl)methyl acetate] | –
4.61 nM | CC(C)(C)c1nnc(-c2nn(-c3ccc(Cl)cc3Cl)c(-c3ccc(Br)cc3)c2CO)s1 [Example 522, (5-(4-bromophenyl)-3-(5-tert-butyl-1,3,4-thiadiazol-2-yl)-1-(2,4-dichlorophenyl)-1H-pyrazol-4-yl)methanol] | –
6.88 nM | CC(C)(C)c1nnc(-c2nn(-c3ccc(Cl)cc3Cl)c(-c3ccc(Cl)cc3)c2CO)s1 [Example 523, (3-(5-tert-butyl-1,3,4-thiadiazol-2-yl)-5-(4-chlorophenyl)-1-(2,4-dichlorophenyl)-1H-pyrazol-4-yl)methanol] | –
8.31 nM | COCc1c(-c2nnc(C(C)(C)C)s2)nn(-c2ccc(Cl)cc2Cl)c1-c1ccc(Br)cc1 [Example 524, 2-(5-(4-bromophenyl)-1-(2,4-dichlorophenyl)-4-(methoxymethyl)-1H-pyrazol-3-yl)-5-tert-butyl-1,3,4-thiadiazole] | –
8.93 nM | CC(C)(C)c1nnc(-c2nn(-c3ccc(Cl)cc3Cl)c(-c3ccc(Br)cc3)c2CF)s1 [Example 525, 2-(5-(4-bromophenyl)-1-(2,4-dichlorophenyl)-4-(fluoromethyl)-1H-pyrazol-3-yl)-5-tert-butyl-1,3,4-thiadiazole] | –
31.3 nM | CC(C)(C)c1nnc(-c2nn(-c3ccc(Cl)cc3Cl)c(-c3ccc(Br)cc3)c2COc2ccc(C(F)(F)F)cn2)s1 [Example 526, 2-(5-(4-bromophenyl)-1-(2,4-dichlorophenyl)-4-((5-(trifluoromethyl)pyridin-2-yloxy)methyl)-1H-pyrazol-3-yl)-5-tert-butyl-1,3,4-thiadiazole] | –
10.1 nM | CC(C)(C)c1nnc(-c2nn(-c3ccc(Cl)cc3Cl)c(-c3ccc(Br)cc3)c2C=O)s1 [Example 527, 5-(4-bromophenyl)-3-(5-tert-butyl-1,3,4-thiadiazol-2-yl)-1-(2,4-dichlorophenyl)-1H-pyrazole-4-carbaldehyde] | –
6.47 nM | CC(O)c1c(-c2nnc(C(C)(C)C)s2)nn(-c2ccc(Cl)cc2Cl)c1-c1ccc(Br)cc1 (stereo not drawn) [Example 528, 1-(5-(4-bromophenyl)-3-(5-tert-butyl-1,3,4-thiadiazol-2-yl)-1-(2,4-dichlorophenyl)-1H-pyrazol-4-yl)ethanol] | –
– | CC(F)c1c(-c2nnc(C(C)(C)C)s2)nn(-c2ccc(Cl)cc2Cl)c1-c1ccc(Br)cc1 (stereo not drawn) [Example 530, 2-(5-(4-bromophenyl)-1-(2,4-dichlorophenyl)-4-(1-fluoroethyl)-1H-pyrazol-3-yl)-5-tert-butyl-1,3,4-thiadiazole] | 11.8 nM

Structure (SMILES) | IC50 (read-out: IC50) | IC50 (IC50(nM))
Clc1ccc(-c2c(Cn3cncn3)c(-c3nnc(C4(c5ccccc5)CC4)s3)nn2-c2ccc(Cl)cc2Cl)cc1 [Example 507, 2-(4-((1H-1,2,4-triazol-1-yl)methyl)-5-(4-chlorophenyl)-1-(2,4-dichlorophenyl)-1H-pyrazol-3-yl)-5-(1-phenylcyclopropyl)-1,3,4-thiadiazole] | 1.79 nM | –
